Data taken from patent publication US20240254087A1, “SELECTIVE, PARTIAL, AND ARRESTIN-BIASED 5-HT2A AGONISTS WITH UTILITY IN VARIOUS DISORDERS” (Saint Joseph's University, priority 2021, published 2024).
Like-named read-outs stand apart in the source and are kept apart here.

Columns and labels:
[1] = target: T1, 5-HT2A (Homo sapiens, UniProt P28223); assay: Ca2+ flux assay, 5-HT2A; assay type: cell-based; parameters: expressed in transfected cells; settings: for Emax: read-out: 5-HT2A Emax % 5-HT, Ca2+ flux
[2] = target: T2, 5-HT2C (Homo sapiens, UniProt P28335); assay: Competitive radioligand binding (NIMH PDSP); parameters: expressed in transfected cells
T2 sequence (P28335 33-458): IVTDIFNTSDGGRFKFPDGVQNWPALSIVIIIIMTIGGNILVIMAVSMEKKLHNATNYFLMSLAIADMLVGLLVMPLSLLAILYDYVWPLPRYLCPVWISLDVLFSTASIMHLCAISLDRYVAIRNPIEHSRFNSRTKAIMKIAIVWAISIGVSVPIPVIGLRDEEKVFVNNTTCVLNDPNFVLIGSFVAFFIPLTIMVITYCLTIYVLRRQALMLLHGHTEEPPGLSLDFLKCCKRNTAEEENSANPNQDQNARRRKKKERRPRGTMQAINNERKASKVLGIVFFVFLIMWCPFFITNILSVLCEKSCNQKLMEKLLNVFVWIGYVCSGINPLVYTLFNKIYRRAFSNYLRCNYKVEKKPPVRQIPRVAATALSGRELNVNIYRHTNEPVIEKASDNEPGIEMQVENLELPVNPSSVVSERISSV
Experimental: (§1) Method 1: Competitive binding experiments were performed by the National Institute of Mental Health Psychoactive Drug Screening Program (NIMH PDSP) using described methods or 5-HT2A experiments performed using [3H]-ketanserin displacement in human 5-HT2A expressing membranes. Target compounds were dissolved in DMSO and an initial screen performed to assess displacement of the radioligand from target receptors at a concentration of 10,000 nM. […] For the Ki experiments, compounds were always tested in triplicate on separate plates. Each plate also contained a known ligand for the receptor as a positive control.

[3] = target: T3, 5-HT2B (Homo sapiens, UniProt P41595); assay: Competitive radioligand binding (NIMH PDSP); parameters: expressed in transfected cells
Experimental: as §1

[4] = target: T2, 5-HT2C; assay: Ca2+ flux assay, 5-HT2C; assay type: cell-based; parameters: expressed in transfected cells; settings: for Emax: read-out: 5-HT2C Emax % 5-HT
[5] = tested on: 5-HT2A; assay: Ca2+ flux assay, 5-HT2A; assay type: cell-based, human; settings: Gq/11 Ca2+ mobilization; higher number = skewed towards 5-HT2A
[6] = target: T3, 5-HT2B; assay: Ca2+ flux assay, 5-HT2B; assay type: cell-based; parameters: expressed in transfected cells; settings: for Emax: read-out: 5-HT2B Emax % 5-HT
[7] = target: T4, 5-HT1A (Homo sapiens, UniProt P08908); assay: Competitive radioligand binding (NIMH PDSP)
T4 sequence (P08908 1-422): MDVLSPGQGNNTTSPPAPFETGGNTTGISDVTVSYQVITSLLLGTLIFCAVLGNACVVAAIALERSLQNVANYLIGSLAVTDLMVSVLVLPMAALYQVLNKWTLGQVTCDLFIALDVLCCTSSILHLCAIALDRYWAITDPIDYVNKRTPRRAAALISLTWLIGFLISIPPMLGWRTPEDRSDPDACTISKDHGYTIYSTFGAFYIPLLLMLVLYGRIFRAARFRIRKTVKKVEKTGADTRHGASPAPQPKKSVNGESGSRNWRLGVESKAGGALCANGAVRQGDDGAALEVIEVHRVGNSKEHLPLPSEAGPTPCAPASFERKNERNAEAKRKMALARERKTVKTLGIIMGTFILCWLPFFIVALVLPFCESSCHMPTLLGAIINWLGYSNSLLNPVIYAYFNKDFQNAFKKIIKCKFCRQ
Experimental: as §1

[8] = target: T5, 5-HT3 (Homo sapiens, UniProt P46098); assay: Competitive radioligand binding (NIMH PDSP)
T5 sequence (P46098 24-478): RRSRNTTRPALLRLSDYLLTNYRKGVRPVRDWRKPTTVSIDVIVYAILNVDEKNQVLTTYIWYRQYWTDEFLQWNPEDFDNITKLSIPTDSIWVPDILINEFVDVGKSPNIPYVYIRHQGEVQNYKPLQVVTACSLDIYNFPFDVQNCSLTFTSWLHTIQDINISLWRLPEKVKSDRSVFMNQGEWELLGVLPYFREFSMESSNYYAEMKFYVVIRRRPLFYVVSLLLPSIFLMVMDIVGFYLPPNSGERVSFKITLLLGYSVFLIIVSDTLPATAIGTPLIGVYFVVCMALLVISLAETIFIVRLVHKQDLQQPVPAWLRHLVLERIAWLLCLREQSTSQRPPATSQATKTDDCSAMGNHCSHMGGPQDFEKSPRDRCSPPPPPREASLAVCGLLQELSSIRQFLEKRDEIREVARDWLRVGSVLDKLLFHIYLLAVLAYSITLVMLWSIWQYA
Experimental: as §1

[9] = target: T1, 5-HT2A; assay: Competitive radioligand binding (NIMH PDSP)
Experimental: as §1

[10] = target: 5-HT1B (Homo sapiens, UniProt P28222); assay: Competitive radioligand binding (NIMH PDSP)
Experimental: as §1

[11] = target: 5-HT1e (Homo sapiens, UniProt P28566); assay: Competitive radioligand binding (NIMH PDSP)
Experimental: as §1

[12] = target: 5-HT1D (Homo sapiens, UniProt P28221); assay: Competitive radioligand binding (NIMH PDSP)
Experimental: as §1

[13] = 5-HT2A (pEC50 ± SEM), Ca2+ flux

Chain of 5-HT1B (P28222 whole entry, species assumed): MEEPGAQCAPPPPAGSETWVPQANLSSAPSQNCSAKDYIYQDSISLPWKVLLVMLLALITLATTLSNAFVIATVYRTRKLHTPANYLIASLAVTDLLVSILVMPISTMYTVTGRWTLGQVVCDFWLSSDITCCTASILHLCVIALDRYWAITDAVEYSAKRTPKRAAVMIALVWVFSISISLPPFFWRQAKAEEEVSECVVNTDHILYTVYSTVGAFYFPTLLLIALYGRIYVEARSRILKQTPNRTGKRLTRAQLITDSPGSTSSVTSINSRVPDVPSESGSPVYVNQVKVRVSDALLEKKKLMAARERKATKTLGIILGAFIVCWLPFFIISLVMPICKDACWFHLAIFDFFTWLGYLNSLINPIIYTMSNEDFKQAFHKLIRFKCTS
T3 sequence (P41595 whole entry): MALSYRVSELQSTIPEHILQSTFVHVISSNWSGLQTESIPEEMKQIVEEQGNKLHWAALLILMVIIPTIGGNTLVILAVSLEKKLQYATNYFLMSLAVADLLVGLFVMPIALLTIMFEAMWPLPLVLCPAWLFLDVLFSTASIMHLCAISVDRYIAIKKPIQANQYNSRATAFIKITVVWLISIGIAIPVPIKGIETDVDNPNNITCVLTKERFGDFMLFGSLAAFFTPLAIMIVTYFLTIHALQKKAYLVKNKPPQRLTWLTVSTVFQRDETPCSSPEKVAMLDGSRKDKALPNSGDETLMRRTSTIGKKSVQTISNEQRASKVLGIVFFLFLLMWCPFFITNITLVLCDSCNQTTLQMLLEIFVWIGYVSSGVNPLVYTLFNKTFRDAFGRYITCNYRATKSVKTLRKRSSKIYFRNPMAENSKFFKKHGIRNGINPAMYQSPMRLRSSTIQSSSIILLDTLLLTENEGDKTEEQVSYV
Chain of 5-HT1D (P28221 whole entry, species assumed): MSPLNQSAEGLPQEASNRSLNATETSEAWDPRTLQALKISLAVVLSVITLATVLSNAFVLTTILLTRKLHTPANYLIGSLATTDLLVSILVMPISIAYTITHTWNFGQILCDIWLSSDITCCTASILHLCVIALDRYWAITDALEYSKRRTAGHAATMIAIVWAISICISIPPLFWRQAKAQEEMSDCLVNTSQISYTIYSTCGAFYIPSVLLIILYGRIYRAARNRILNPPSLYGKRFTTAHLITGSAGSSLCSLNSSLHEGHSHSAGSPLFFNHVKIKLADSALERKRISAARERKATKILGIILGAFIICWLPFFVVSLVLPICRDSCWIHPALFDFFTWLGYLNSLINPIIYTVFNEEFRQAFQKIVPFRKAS
T1 sequence (P28223 whole entry): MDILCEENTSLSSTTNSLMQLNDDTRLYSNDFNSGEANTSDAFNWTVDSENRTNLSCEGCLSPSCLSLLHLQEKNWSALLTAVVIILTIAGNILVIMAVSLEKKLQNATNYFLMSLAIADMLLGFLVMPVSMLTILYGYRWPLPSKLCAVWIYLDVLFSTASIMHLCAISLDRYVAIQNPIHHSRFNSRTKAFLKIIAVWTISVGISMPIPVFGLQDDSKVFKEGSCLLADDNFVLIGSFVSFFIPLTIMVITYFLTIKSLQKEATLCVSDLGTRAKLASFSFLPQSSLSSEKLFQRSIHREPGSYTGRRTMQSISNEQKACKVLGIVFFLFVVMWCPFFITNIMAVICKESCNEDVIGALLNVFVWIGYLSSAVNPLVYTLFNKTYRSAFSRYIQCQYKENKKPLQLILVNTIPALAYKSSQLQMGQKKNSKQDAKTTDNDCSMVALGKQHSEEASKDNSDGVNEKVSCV
Chain of 5-HT1e (P28566 whole entry, species assumed): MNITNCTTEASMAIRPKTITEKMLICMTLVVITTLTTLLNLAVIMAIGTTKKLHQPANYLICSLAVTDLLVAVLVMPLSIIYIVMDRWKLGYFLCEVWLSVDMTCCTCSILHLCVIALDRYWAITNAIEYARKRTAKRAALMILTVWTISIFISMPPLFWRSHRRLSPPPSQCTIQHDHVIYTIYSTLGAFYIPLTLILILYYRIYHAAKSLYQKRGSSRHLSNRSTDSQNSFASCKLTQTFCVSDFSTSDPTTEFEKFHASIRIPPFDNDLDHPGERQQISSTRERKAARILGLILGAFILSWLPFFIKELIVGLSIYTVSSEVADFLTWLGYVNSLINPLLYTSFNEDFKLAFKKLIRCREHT

Structure (SMILES)	5-HT2A Emax % 5-HT ([1]; Ca2+ flux)	5-HT2A/5-HT2c Selectivity Factor ΔLog(Emax/EC50) [5]	5-HT2B EC50, nM ([6]; Ca2+ flux)	Emax [1]	Ki [2]	Ki [3]	5-HT2C EC50, nM [4]	Emax [4]	Emax ([6]; Ca2+ flux)	Ki [7]	Ki [8]	Ki [9]	Ki [10]	Ki [11]	Ki [12]	EC50 ([1]; 5-HT2A EC50, nM, Ca2+ flux)	EC50 ([4]; 5-HT2C EC50, nM)	also measured
COc1cc([N+](=O)[O-])c(OC)cc1CCNCc1ccccc1OC(F)(F)F [25N-NBOCF3 (12)]	75 ± 2 % 5-HT	6.1	No activity	–	–	–	–	–	–	–	–	–	–	–	–	–	–	5-HT2A (pEC50 ± SEM) ([1]; Ca2+ flux): (8.09 ± 0.09); EC50 ([1]; Ca2+ flux, read-out: 5-HT2A EC50): 8.09 nM; 5-HT2C pKi affinity (Ki ± SEM) [2]: 7.33; 5-HT2B pKi affinity (Ki ± SEM) [3]: 7.86; 5-HT2C (pEC50 ± SEM) [4]: (7.23 ± 0.04); 5-HT2C Emax % 5-HT [4]: 89 ± 1 % 5-HT; EC50 ([4]; read-out: 5-HT2C EC50): 58.3 nM; 5-HT2B Emax % 5-HT ([6]; Ca2+ flux): <10 % 5-HT; 5-HT1A pKi affinity (Ki ± SEM) [7]: 5.95; 5-HT3 pKi affinity (Ki ± SEM) [8]: <5; 5-HT2A pKi affinity (Ki ± SEM) [9]: 7.84; 5-HT1B pKi affinity (Ki ± SEM) [10]: <5; 5-HT1e pKi affinity (Ki ± SEM) [11]: <5; 5-HT1D pKi affinity (Ki ± SEM) [12]: <5
COc1cc([N+](=O)[O-])c(OC)cc1CCNCc1cccc2ccccc12 [25N-N-1-Nap (16), [2-(2,5-dimethoxy-4-nitrophenyl)ethyl][(naphthalen-1-yl)methyl]amine]	–	5-HT2A Selective	No activity	< 10%	4.27 nM	1.17 nM	No activity	< 10%	< 10%	240 nM	> 10000 nM	1.15 nM	> 10000 nM	> 10000 nM	871 nM	–	–	5-HT2A EC50, nM ([1]; Ca2+ flux): No activity
COc1cc([N+](=O)[O-])c(OC)cc1CCNCc1cccc(C)c1O [25N-NB-2-OH-3-Me (18), 2-({[2-(2,5-dimethoxy-4-nitrophenyl)ethyl]amino}methyl)-6-methylphenol]	–	5-HT2A Selective	No activity	55 ± 2%	2.88 nM	0.776 nM	No activity	< 10%	< 10%	186 nM	> 10000 nM	0.479 nM	> 10000 nM	> 10000 nM	1290 nM	1.58 nM	–	–
COc1cc([N+](=O)[O-])c(OC)cc1CCNCc1ccccc1[N+](=O)[O-] [25N-NBNO2 (15), [2-(2,5-dimethoxy-4-nitrophenyl)ethyl][(2-nitrophenyl)methyl]amine]	64 ± 2 % 5-HT	66.8	No activity	≤ 77%	282 nM	191 nM	–	36 ± 2%	< 10%	1950 nM	> 10000 nM	81.3 nM	> 10000 nM	> 10000 nM	> 10000 nM	15.6 nM	583 nM	–
COc1cc([N+](=O)[O-])c(OC)cc1CCNCc1ccccc1C(F)(F)F [25N-NBCF3 (14), [2-(2,5-dimethoxy-4-nitrophenyl)ethyl]({[2-(trifluoromethyl)phenyl]methyl}) amine]	77 ± 1 % 5-HT	85.5	No activity	≤ 77%	102 nM	58.9 nM	–	20 ± 2%	< 10%	1070 nM	> 10000 nM	20 nM	> 10000 nM	> 10000 nM	> 10000 nM	12.3 nM	271 nM	–
COc1cc([N+](=O)[O-])c(OC)cc1CCNCc1ccccc1 [25N-NB (2), Benzyl[2-(2,5-dimethoxy-4-nitrophenyl)ethyl]amine]	–	23.6	No activity	86 ± 1%	–	–	–	75 ± 1%	< 10%	–	–	–	–	–	–	1.27 nM	26.2 nM	–
COc1cc([N+](=O)[O-])c(OC)cc1CCNCc1cccc(O)c1 [25N-NB-3-OH (21), 3-({[2-(2,5-dimethoxy-4-nitrophenyl)ethyl]amino}methyl)phenol]	–	92.6	No activity	55 ± 2%	83.2 nM	35.5 nM	–	53 ± 4%	< 10%	1860 nM	> 10000 nM	14.5 nM	> 10000 nM	> 10000 nM	> 10000 nM	3.32 nM	49.1 nM	–
COc1cc([N+](=O)[O-])c(OC)cc1CCN [2C-N (1), 2-(2,5-dimethoxy-4-nitrophenyl)ethan-1-amine, reference compound]	–	19.1	–	100 ± 1%	162 nM	123 nM	–	69 ± 2%	72 ± 3%	1450 nM	> 10000 nM	72.4 nM	> 10000 nM	676 nM	832 nM	4.56 nM	60.1 nM	EC50 [1, 13]: 4.9 nM; EC50 [6]: 50.3 nM
COc1cc([N+](=O)[O-])c(OC)cc1CCNCc1ccccc1-c1ccccc1 [25N-NBPh (17), ({[1,1′-biphenyl]-2-yl}methyl)[2-(2,5-dimethoxy-4-nitrophenyl)ethyl]amine]	–	5-HT2A Selective	No activity	< 10%	372 nM	1410 nM	No activity	< 10%	< 10%	1780 nM	> 10000 nM	0.331 nM	> 10000 nM	> 10000 nM	1200 nM	–	–	5-HT2A EC50, nM ([1]; Ca2+ flux): No activity
COc1cc([N+](=O)[O-])c(OC)cc1CCNCc1ccccc1OC [25N-NBOMe (4), [2-(2,5-dimethoxy-4-nitrophenyl)ethyl] [(2-methoxyphenyl)methyl]amine]	–	2.4	No activity	94%	6.92 nM	4.47 nM	–	102 ± 1%	< 10%	1860 nM	> 10000 nM	0.55 nM	> 10000 nM	> 10000 nM	5620 nM	–	0.84 nM	EC50 [1, 13]: 0.316 nM; EC50 ([4]; 5-HT2C (pEC50 ± SEM)): 0.851 nM
